These results are taken from patent US7932270B2 (Cytokinetics, Inc., priority 2006, dated 2011).

T1 sequence (P02607 2-151): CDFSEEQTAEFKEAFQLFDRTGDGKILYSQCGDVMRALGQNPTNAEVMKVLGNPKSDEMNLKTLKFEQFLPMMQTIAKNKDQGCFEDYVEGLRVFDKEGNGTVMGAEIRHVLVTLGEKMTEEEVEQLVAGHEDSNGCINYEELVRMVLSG
T1 sequence (P10587 84-789): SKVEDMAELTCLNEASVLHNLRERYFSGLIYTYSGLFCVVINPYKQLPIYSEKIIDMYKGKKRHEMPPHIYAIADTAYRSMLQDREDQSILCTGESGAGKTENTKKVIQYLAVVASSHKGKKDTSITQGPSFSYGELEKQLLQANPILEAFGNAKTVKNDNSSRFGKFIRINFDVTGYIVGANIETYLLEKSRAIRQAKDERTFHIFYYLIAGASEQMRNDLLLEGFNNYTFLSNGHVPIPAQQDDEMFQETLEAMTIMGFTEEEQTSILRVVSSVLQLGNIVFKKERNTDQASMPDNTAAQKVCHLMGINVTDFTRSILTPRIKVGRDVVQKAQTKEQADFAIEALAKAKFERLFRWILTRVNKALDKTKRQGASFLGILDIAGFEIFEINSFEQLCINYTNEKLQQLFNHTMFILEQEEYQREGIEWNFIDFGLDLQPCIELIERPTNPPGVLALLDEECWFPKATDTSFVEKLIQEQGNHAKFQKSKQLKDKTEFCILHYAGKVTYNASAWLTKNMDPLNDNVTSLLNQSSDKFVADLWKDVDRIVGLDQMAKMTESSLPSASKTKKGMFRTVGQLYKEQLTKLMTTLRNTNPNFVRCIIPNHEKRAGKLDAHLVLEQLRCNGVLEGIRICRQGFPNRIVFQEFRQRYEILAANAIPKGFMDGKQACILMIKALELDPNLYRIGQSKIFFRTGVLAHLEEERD

This experiment has as its target T1, chicken gizzard smooth muscle myosin subfragment-1 chemically crosslinked to cardiac or skeletal actin (Gallus gallus, UniProt P10587).
T1 construct: chicken gizzard smooth muscle myosin subfragment-1; from tissue; host or cells: chicken gizzard
In words: Smooth muscle myosin ATPase dose response assay (pyruvate kinase/horseradish peroxidase/pyruvate oxidase-coupled, amplex red fluorescence). As to conditions: read-out: IC50 Arithmetic Mean. Type of experiment: biochemical. In a few lines: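 Lead-optimization format: ATPase coupled via pyruvate kinase, pyruvate oxidase and peroxidase, pH 7.00 at 22° C, with 0.15 mM ATP, 100 mM KCl, 2 mM MgCl2, 2 mM phosphate and 0.1 mM amplex red (final). Crosslinked S1 titrated empirically for set hydrolysis rate; fluorescence (ex 480/em 615 nm) dose curves fit 4-parameter for IC50.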
With `N#Cc1ccccc1-c1ccc(C(=O)N[C@H]2CCCN(CCN)C2=O)c(NCCc2cccc(F)c2)n1` (stereo in doubt) [N-[1-(2-aminoethyl)-2-oxo(3-piperidyl)](6-(2-cyanophenyl)-2-{[2-(3-fluorophenyl)ethyl]amino}(3-pyridyl))carboxamide], the IC50 is 18500 nM.
The value for `O=C(NCc1ccccc1)c1ccc(-c2ccccc2)nc1NCCc1ccccn1` [N-benzyl{6-phenyl-2-[(2-(2-pyridyl)ethyl)amino](3-pyridyl)}carboxamide] was 1560 nM; that for `N#Cc1ccccc1-c1ccc(C(=O)NCC2CCCCC(=O)N2CCCN)c(NCCc2cccc(F)c2)n1` (stereo not drawn) [N-{[1-(3-aminopropyl)-7-oxoazaperhydroepin-2-yl]methyl}(6-(2-cyanophenyl)-2-{[2-(3-fluorophenyl)ethyl]amino}(3-pyridyl))carboxamide] was 273 nM.
In the case of `CNC(=O)[C@@H](CN)NC(=O)c1ccc(-c2ccccc2C#N)nc1NCCc1cccc(F)c1` [(2R)-3-amino-2-[(6-(2-cyanophenyl)-2-{[2-(3-fluorophenyl)ethyl]amino}(3-pyridyl))carbonylamino]-N-methylpropanamide], the half-maximal inhibitory concentration (IC50) amounted to 274 nM.
Turning to `CC(C)(C)OC(=O)NCc1ncccc1CNC(=O)c1cc(F)c(-c2cn[nH]c2)nc1NCCc1cccc(F)c1` [N-[(2-{[(tert-butoxy)carbonylamino]methyl}(3-pyridyl))methyl](5-fluoro-2-{[2-(3-fluorophenyl)ethyl]amino}-6-pyrazol-4-yl(3-pyridyl))carboxamide], the IC50 is 488 nM.
Next, `CC(=O)N1CCC[C@@H](CNC(=O)c2ccc(-c3ccccc3C#N)nc2NCCc2cccc(F)c2)C1` [N-[((3S)-1-acetyl(3-piperidyl))methyl](6-(2-cyanophenyl)-2-{[2-(3-fluorophenyl)ethyl]amino}(3-pyridyl))carboxamide]: 10700 nM.
Next, `CC(C)[C@H](CNC(=O)c1ccc(-c2ccccc2C#N)nc1NCCc1cccc(F)c1)NC(=O)CN` [N-((1R)-1-{[(6-(2-cyanophenyl)-2-{[2-(3-fluorophenyl)ethyl]amino}(3-pyridyl))carbonylamino]methyl}-2-methylpropyl)-2-aminoacetamide]: 939 nM; `NC(=O)c1cccc(CCNc2nc(-c3ccccc3)ccc2C(=O)NCc2cccnc2)c1` [3-[2-({6-phenyl-3-[N-(3-pyridylmethyl)carbamoyl]-2-pyridyl}amino)ethyl]benzamide]: 11500 nM; `CC(C)(C)OC(=O)NCC(=O)N1CCC[C@@H]1CNC(=O)c1cc(F)c(-c2ccccc2C#N)nc1NCCc1cccc(F)c1` [N-[((2R)-1-{2-[(tert-butoxy)carbonylamino]acetyl}pyrrolidin-2-yl)methyl](6-(2-cyanophenyl)-5-fluoro-2-{[2-(3-fluorophenyl)ethyl]amino}(3-pyridyl))carboxamide]: 2790 nM.
Consider `O=C(NCc1cccnc1)c1ccc(-c2ccccc2)nc1NCCc1ncccc1F` [(2-{[2-(3-fluoro(2-pyridyl))ethyl]amino}-6-phenyl(3-pyridyl))-N-(3-pyridylmethyl)carboxamide], for which the IC50 amounted to 1480 nM.
The value for `CN[C@@H](C)CNC(=O)c1ccc(-c2ccccc2C#N)nc1NCCc1cccc(F)c1` [N-[(2S)-2-(methylamino)propyl](6-(2-cyanophenyl)-2-{[2-(3-fluorophenyl)ethyl]amino}(3-pyridyl))carboxamide] was 944 nM; that for `Cn1cc(-c2nc(NCCc3cccc(F)c3)c(C(=O)NCC(CO)CO)cc2F)cn1` [(5-fluoro-2-{[2-(3-fluorophenyl)ethyl]amino}-6-(1-methylpyrazol-4-yl)(3-pyridyl))-N-[3-hydroxy-2-(hydroxymethyl)propyl]carboxamide] was 134 nM.
The value for `N#Cc1ccccc1-c1ccc(C(=O)NCCNC(=O)CCCN)c(NCCc2cccc(F)c2)n1` [4-amino-N-{2-[(6-(2-cyanophenyl)-2-{[2-(3-fluorophenyl)ethyl]amino}(3-pyridyl))carbonylamino]ethyl}butanamide] was 1260 nM; that for `N#Cc1ccccc1CCNc1nc(-c2ccccc2C#N)ccc1C(=O)NCc1cccnc1` [(6-(2-cyanophenyl)-2-{[2-(2-cyanophenyl)ethyl]amino}(3-pyridyl))-N-(3-pyridylmethyl)carboxamide] was 44 nM.
As for `C[C@@H](CO)CNC(=O)c1cc(F)c(-c2cnn(C)c2)nc1NCCc1cccc(F)c1` [N-((2R)-3-hydroxy-2-methylpropyl)(5-fluoro-2-{[2-(3-fluorophenyl)ethyl]amino}-6-(1-methylpyrazol-4-yl)(3-pyridyl))carboxamide], the IC50 was found to be 50 nM.
On to `COC(=O)N1CCN(C)C[C@@H]1CNC(=O)c1ccc(-c2ccccc2C#N)nc1NCCc1cccc(F)c1` [methyl (2S)-2-{[(6-(2-cyanophenyl)-2-{[2-(3-fluorophenyl)ethyl]amino}(3-pyridyl))carbonylamino]methyl}-4-methylpiperazinecarboxylate], for which the concentration for half-maximal inhibition (IC50) stood at 10100 nM.
Regarding `CC(C)(CNC(=O)c1ccc(-c2ccccc2C#N)nc1NCCc1cccc(F)c1)NC(=O)CN`, the half-inhibitory concentration (IC50) was found to be 320 nM.
As to `Cc1csc(-c2ccc(C(=O)NCc3cccnc3)c(NCCc3cccc(F)c3)n2)c1` [(2-{[2-(3-fluorophenyl)ethyl]amino}-6-(4-methyl(2-thienyl))(3-pyridyl))-N-(3-pyridylmethyl)carboxamide], the IC50 worked out at 148 nM.
Next, `N#Cc1ccccc1-c1ccc(C(=O)NC[C@H]2CCCCN2)c(NCCc2cccc(F)c2)n1` [N-[((2R)(2-piperidyl))methyl](6-(2-cyanophenyl)-2-{[2-(3-fluorophenyl)ethyl]amino}(3-pyridyl))carboxamide]: 1160 nM; `N#Cc1ccccc1-c1ccc(C(=O)NCCOCCN)c(NCCc2cccc(F)c2)n1` [N-[2-(2-aminoethoxy)ethyl](6-(2-cyanophenyl)-2-{[2-(3-fluorophenyl)ethyl]amino}(3-pyridyl))carboxamide]: 1620 nM.
Next, `CC1CN(C(=O)c2cc(F)c(-c3cnn(C)c3)nc2NCCc2cccc(F)c2)C1` [5-fluoro-2-{[2-(3-fluorophenyl)ethyl]amino}-6-(1-methylpyrazol-4-yl)(3-pyridyl) 3-methylazetidinyl ketone]: 10500 nM; `CC(C)(C)OC(=O)NCCc1ncccc1CNC(=O)c1ccc(-c2ccccc2C#N)nc1NCCc1cccc(F)c1` [N-[(2-{2-[(tert-butoxy)carbonylamino]ethyl}(3-pyridyl))methyl](6-(2-cyanophenyl)-2-{[2-(3-fluorophenyl)ethyl]amino}(3-pyridyl))carboxamide]: 470 nM.
The value for `C[C@H](CNC(=O)c1cc(F)c(-c2cn[nH]c2)nc1NCC(O)c1cccc(F)c1)NC(=O)CNC(=O)OC(C)(C)C` (stereo partly drawn) was 14200 nM; that for `COc1ccc(-c2ccc(C(=O)NCc3cccnc3)c(NCCc3ccccn3)n2)cc1` [{6-(4-methoxyphenyl)-2-[(2-(2-pyridyl)ethyl)amino](3-pyridyl)}-N-(3-pyridylmethyl)carboxamide] was 1060 nM.
As to `CNC(=O)[C@@H](CO)NC(=O)c1ccc(-c2ccccc2C#N)nc1NCCc1cccc(F)c1` [(2R)-2-[(6-(2-cyanophenyl)-2-{[2-(3-fluorophenyl)ethyl]amino}(3-pyridyl))carbonylamino]-3-hydroxy-N-methylpropanamide], the IC50 is 544 nM.
Next, `CS(=O)(=O)NC(=O)CNC(=O)c1ccc(-c2ccccc2C#N)nc1NCCc1cccc(F)c1` [2-[(6-(2-cyanophenyl)-2-{[2-(3-fluorophenyl)ethyl]amino}(3-pyridyl))carbonylamino]-N-(methylsulfonyl)acetamide]: 24900 nM; `C[C@@H](CNC(=O)CN)CNC(=O)c1cc(F)c(-c2cnn(C)c2)nc1NCCc1cccc(F)c1` [N-{(2R)-3-[(5-fluoro-2-{[2-(3-fluorophenyl)ethyl]amino}-6-(1-methylpyrazol-4-yl)(3-pyridyl))carbonylamino]-2-methylpropyl}-2-aminoacetamide]: 152 nM.
Next, `O=C(NCc1cccnc1)c1ccc(-c2ccccc2)nc1NCCc1c(F)cccc1F` [(2-{[2-(2,6-difluorophenyl)ethyl]amino}-6-phenyl(3-pyridyl))-N-(3-pyridylmethyl)carboxamide]: 288 nM; `C[C@H](CNC(=O)c1cc(F)c(-c2cnn(C)c2)nc1NCCc1cccc(F)c1)NCC(N)=O` [N-{(2R)-2-[(carbamoylmethyl)amino]propyl}(5-fluoro-2-{[2-(3-fluorophenyl)ethyl]amino}-6-(1-methylpyrazol-4-yl)(3-pyridyl))carboxamide]: 636 nM; `N#Cc1ccccc1-c1ccc(C(=O)NC[C@H]2CNCCN2C(=O)CCN)c(NCCc2cccc(F)c2)n1` [N-{[(2R)-1-(3-aminopropanoyl)piperazin-2-yl]methyl}(6-(2-cyanophenyl)-2-{[2-(3-fluorophenyl)ethyl]amino}(3-pyridyl))carboxamide]: 4890 nM.
The value for `COC(=O)NCCNC(=O)c1ccc(-c2ccccc2C#N)nc1NCCc1cccc(F)c1` [(6-(2-cyanophenyl)-2-{[2-(3-fluorophenyl)ethyl]amino}(3-pyridyl))-N-[2-(methoxycarbonylamino)ethyl]carboxamide] was 1120 nM.
Consider `N#Cc1ccccc1-c1ccc(C(=O)NC[C@H]2CCCN2C(=O)CO)c(NCCc2cccc(F)c2)n1` [N-{[(2R)-1-(2-hydroxyacetyl)pyrrolidin-2-yl]methyl}(6-(2-cyanophenyl)-2-{[2-(3-fluorophenyl)ethyl]amino}(3-pyridyl))carboxamide], for which the IC50 was found to be 116 nM.
Next, `Cn1cc(-c2nc(NCCc3cccc(F)c3)c(C(=O)NC[C@H]3CCCN3C(=O)[C@@H](N)CCCN)cc2F)cn1` [N-{[(2R)-1-((2S)-2,5-diaminopentanoyl)pyrrolidin-2-yl]methyl}(5-fluoro-2-{[2-(3-fluorophenyl)ethyl]amino}-6-(1-methylpyrazol-4-yl)(3-pyridyl))carboxamide]: 78 nM.

By IC50 is commonly meant the concentration that gives 50% inhibition.
